Experimental data: US20140005163A1 (NOVARTIS AG, priority 2010, published 2014)
Converted amounts (≈) assume the structure as drawn.

Assays:
[1] = tested on: PKB Ser473 phosphorylation in Rat1-myr-HA-p110 delta cells; assay: Reverse protein array assay, PKB Ser473 phosphorylation in Rat1-myr-p110 delta cells; format: cell-based; details: read-out: p-PKB IC50
Procedure, shortened: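 Compound exposure lasted 30 min in Rat1 cells bearing membrane-targeted HA-p110 isoforms, using 8 serial concentrations. Arrayed lysates, each spotted at four dilutions, gave relative fluorescence signals for phospho-Ser473 PKB.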

Solubility at pH 6.8 = format: physicochemical; details: pH 6.8, aqueous buffer, thermodynamic from solid; read-out: solubility
Procedure, shortened: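 Following the procedure of Zhou et al. (2007), compound solubility was determined at pH 6.8.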

mTOR = biological target: T1, mTOR (Homo sapiens, UniProt P42345); assay: Biochemical assay for m-TOR by TR-FRET; details: 8 μM ATP, 400 nM GFP-4EBP1, 0.5 nM mTOR
T1 construct: purchased Invitrogen Corporation (Carlsbad/CA, USA) PV4753
T1 sequence (P42345 1360-2549 limits assumed): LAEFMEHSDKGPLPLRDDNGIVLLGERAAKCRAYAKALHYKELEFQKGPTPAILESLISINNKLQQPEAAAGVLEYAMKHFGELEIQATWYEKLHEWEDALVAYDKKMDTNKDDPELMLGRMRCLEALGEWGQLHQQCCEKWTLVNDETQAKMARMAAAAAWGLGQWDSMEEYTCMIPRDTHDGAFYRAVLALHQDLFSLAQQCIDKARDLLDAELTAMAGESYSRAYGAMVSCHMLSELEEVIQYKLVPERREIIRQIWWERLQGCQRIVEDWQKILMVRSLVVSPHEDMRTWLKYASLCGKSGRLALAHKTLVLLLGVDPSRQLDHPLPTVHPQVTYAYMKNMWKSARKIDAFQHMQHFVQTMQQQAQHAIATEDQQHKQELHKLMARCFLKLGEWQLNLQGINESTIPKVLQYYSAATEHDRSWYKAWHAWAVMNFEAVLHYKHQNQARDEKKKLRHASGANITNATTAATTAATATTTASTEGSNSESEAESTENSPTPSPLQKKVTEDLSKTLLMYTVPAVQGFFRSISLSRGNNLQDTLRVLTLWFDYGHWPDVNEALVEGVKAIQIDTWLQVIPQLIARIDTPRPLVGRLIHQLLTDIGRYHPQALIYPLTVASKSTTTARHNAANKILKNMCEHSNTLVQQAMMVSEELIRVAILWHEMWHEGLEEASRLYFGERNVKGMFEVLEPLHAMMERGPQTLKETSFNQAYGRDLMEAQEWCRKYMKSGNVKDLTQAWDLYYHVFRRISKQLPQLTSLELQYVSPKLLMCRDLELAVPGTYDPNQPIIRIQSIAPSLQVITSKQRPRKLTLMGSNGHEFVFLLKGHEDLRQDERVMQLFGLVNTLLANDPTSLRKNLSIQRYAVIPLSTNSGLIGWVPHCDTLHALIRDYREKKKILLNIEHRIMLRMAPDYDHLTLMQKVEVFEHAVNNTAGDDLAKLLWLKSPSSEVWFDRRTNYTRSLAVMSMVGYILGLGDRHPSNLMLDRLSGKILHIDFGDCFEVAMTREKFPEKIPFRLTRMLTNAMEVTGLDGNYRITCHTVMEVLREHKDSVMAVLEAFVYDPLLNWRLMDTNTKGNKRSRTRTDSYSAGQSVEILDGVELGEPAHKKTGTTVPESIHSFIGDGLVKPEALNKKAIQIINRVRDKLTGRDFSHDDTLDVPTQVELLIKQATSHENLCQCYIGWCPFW
Procedure, shortened: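 Enzyme 0.5 nM, GFP-4EBP1 400 nM, ATP 8 μM (all final); 50 mM HEPES pH 7.5, 10 mM MnCl2, 1 mM DTT; rt. Detection: Tb-α-p4EBP1 [pT46] 0.5 nM in EDTA, TR-FRET, 15 min. Reference compound on every plate, 16-point duplicate dilutions.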

SMILES | IC50 [1] [µM] | solubility (Solubility at pH 6.8) [µg/mL] | IC50 (mTOR) [µM]
Cc1nn(CC(=O)N(C)C)cc1-n1c(=O)n(C)c2cnc3ccc(-c4ccc(-n5cccn5)cc4)cc3c21 [Example 51.2, N,N-Dimethyl-2-{3-methyl-4-[3-methyl-2-oxo-8-(4-pyrazol-1-yl-phenyl)-2,3-dihydro-imidazo[4,5-c]quinolin-1-yl]-pyrazol-1-yl}-acetamide] | 0.022 | 4 (≈ 7.9 µM) | < 0.003
CCn1cc(-n2c(=O)n(C)c3cnc4ccc(-c5cnc(OC)nc5)cc4c32)c(C)n1 [Example 17.1, 1-(1-Ethyl-3-methyl-1H-pyrazol-4-yl)-8-(2-methoxy-pyrimidin-5-yl)-3-methyl-1,3-dihydro-imidazo[4,5-c]quinolin-2-one] | 0.103 | 81 (≈ 195 µM) | 0.059
Cc1cc(-n2c(=O)n(C)c3cnc4ccc(-c5ccc(C(F)(F)F)nc5)cc4c32)n(C)n1 [Example 8.2, 1-(2,5-Dimethyl-2H-pyrazol-3-yl)-3-methyl-8-(6-trifluoromethyl-pyridin-3-yl)-1,3-dihydro-imidazo[4,5-c]quinolin-2-one] | 0.412 | 4 (≈ 9.12 µM) | 0.677
CCOc1ccc(-c2ccc3ncc4c(c3c2)n(-c2cn(CC(=O)N3CCOCC3)nc2C)c(=O)n4C)cn1 [Example 3.10, 8-(6-Ethoxy-pyridin-3-yl)-3-methyl-1-[3-methyl-1-(2-morpholin-4-yl-2-oxo-ethyl)-1H-pyrazol-4-yl]-1,3-dihydro-imidazo[4,5-c]quinolin-2-one] | 0.084 | 26 (≈ 49.3 µM) | 0.018
COc1ncc(-c2ccc3ncc4c(c3c2)n(-c2cn(C)nc2Cl)c(=O)n4C)cn1 [Example 17.3, 1-(3-Chloro-1-methyl-1H-pyrazol-4-yl)-8-(2-methoxy-pyrimidin-5-yl)-3-methyl-1,3-dihydro-imidazo[4,5-c]quinolin-2-one] | 0.028 | 4 (≈ 9.48 µM) | 0.012
Cc1ccc(-c2ccc3ncc4c(c3c2)n(-c2cn(C)nc2C)c(=O)n4C)cn1 [Example 7.2, 1-(1,3-Dimethyl-1H-pyrazol-4-yl)-3-methyl-8-(6-methyl-pyridin-3-yl)-1,3-dihydro-imidazo[4,5-c]quinolin-2-one] | 0.028 | 9 (≈ 23.4 µM) | 0.034
Cc1nn(C)c(C)c1-n1c(=O)n(C)c2cnc3ccc(-c4cccc(O)c4)cc3c21 [Example 32.2, 8-(3-Hydroxy-phenyl)-3-methyl-1-(1,3,5-trimethyl-1H-pyrazol-4-yl)-1,3-dihydro-imidazo[4,5-c]quinolin-2-one] | 0.366 | 194 (≈ 486 µM) | 
COc1ccc(-c2ccc3ncc4c(c3c2)n(-c2c(C)nn(C)c2C)c(=O)n4C)cn1 [Example 2.4, 8-(6-Methoxy-pyridin-3-yl)-3-methyl-1-(1,3,5-trimethyl-1H-pyrazol-4-yl)-1,3-dihydro-imidazo[4,5-c]quinolin-2-one] | 0.882 | 50 (≈ 121 µM) | 0.448
Cc1nn(C(C)C)cc1-n1c(=O)n(C)c2cnc3ccc(-c4ccc(N5CCC5)nc4)cc3c21 [Example 5.2, 8-(6-Azetidin-1-yl-pyridin-3-yl)-1-(1-isopropyl-3-methyl-1H-pyrazol-4-yl)-3-methyl-1,3-dihydro-imidazo[4,5-c]quinolin-2-one] | 0.027 | 7 (≈ 15.4 µM) | 0.013
CCOc1cncc(-c2ccc3ncc4c(c3c2)n(-c2c(C)cnn2C)c(=O)n4C)c1 [Example 56.5, 1-(2,4-Dimethyl-2H-pyrazol-3-yl)-8-(5-ethoxy-pyridin-3-yl)-3-methyl-1,3-dihydro-imidazo[4,5-c]quinolin-2-one] |  | 16 (≈ 38.6 µM) | 0.763

Continued, values first:

IC50 [1] [µM] | solubility (Solubility at pH 6.8) [µg/mL] | IC50 (mTOR) [µM] | SMILES
0.056 | 21 (≈ 52.1 µM) | 0.039 | Cc1nn(C)cc1-n1c(=O)n(C)c2cnc3ccc(-c4cnc(F)c(N)c4)cc3c21 [Example 149.2, 8-(5-Amino-6-fluoro-pyridin-3-yl)-1-(1,3-dimethyl-1H-pyrazol-4-yl)-3-methyl-1,3-dihydro-imidazo[4,5-c]quinolin-2-one]
0.81 | 3 (≈ 6.02 µM) | 0.639 | COCCn1c(=O)n(C)c2ncc(-c3ccc4ncc5c(c4c3)n(-c3cn(C)nc3C)c(=O)n5C)cc21 [Example 69, 1-(1,3-Dimethyl-1H-pyrazol-4-yl)-8-[1-(2-methoxy-ethyl)-3-methyl-2-oxo-2,3-dihydro-1H-imidazo[4,5-b]pyridin-6-yl]-3-methyl-1,3-dihydro-imidazo[4,5-c]quinolin-2-one]
0.044 | 7 (≈ 16.3 µM) | 0.003 | COc1ccc(-c2ccc3ncc4c(c3n2)n(-c2cc(C)nn2C)c(=O)n4C)cc1OC [Example 253, 8-(3,4-Dimethoxy-phenyl)-1-(2,5-dimethyl-2H-pyrazol-3-yl)-3-methyl-1,3-dihydro-1,3,5,9-tetraaza-cyclopenta[a]naphthalen-2-one]
0.026 | 58 (≈ 130 µM) | 0.014 | CCn1cc(-n2c(=O)n(C)c3cnc4ccc(-c5cnc(OC)nc5OC)cc4c32)c(C)n1 [Example 234.1, 8-(2,4-Dimethoxy-pyrimidin-5-yl)-1-(1-ethyl-3-methyl-1H-pyrazol-4-yl)-3-methyl-1,3-dihydro-imidazo[4,5-c]quinolin-2-one]
0.039 | 5 (≈ 12 µM) | 0.01 | COc1ccc(-c2ccc3ncc4[nH]c(=O)n(-c5cc(C)nn5C)c4c3n2)cc1OC [Example 252, 8-(3,4-Dimethoxy-phenyl)-1-(2,5-dimethyl-2H-pyrazol-3-yl)-1,3-dihydro-1,3,5,9-tetraaza-cyclopenta[a]naphthalen-2-one]
0.033 | 6 (≈ 14 µM) | 0.017 | CCOc1cc(-c2ccc3ncc4c(c3c2)n(-c2cn(C)nc2C)c(=O)n4C)cnc1C [Example 85.1, 1-(1,3-Dimethyl-1H-pyrazol-4-yl)-8-(5-ethoxy-6-methyl-pyridin-3-yl)-3-methyl-1,3-dihydro-imidazo[4,5-c]quinolin-2-one]
0.085 | 5 (≈ 10.6 µM) | 0.058 | CCNC(=O)c1cc(-c2ccc3ncc4c(c3c2)n(-c2cn(C)nc2C)c(=O)n4C)cnc1NC [Example 242.1, 5-[1-(1,3-Dimethyl-1H-pyrazol-4-yl)-3-methyl-2-oxo-2,3-dihydro-1H-imidazo[4,5-c]quinolin-8-yl]-N-ethyl-2-methylamino-nicotinamide]
0.115 | > 443 | 0.013 | CCn1cc(-n2c(=O)n(C)c3cnc4ccc(-c5cncc(C(C)(C)O)c5)cc4c32)c(C)n1 [Example 215.4, 1-(1-Ethyl-3-methyl-1H-pyrazol-4-yl)-8-[5-(1-hydroxy-1-methyl-ethyl)-pyridin-3-yl]-3-methyl-1,3-dihydro-imidazo[4,5-c]quinolin-2-one]
0.246 | 8 (≈ 18.2 µM) | 0.065 | Cc1nn(C)cc1-n1c(=O)n(C)c2cnc3ccc(-c4cncc(OCC5CC5)c4)cc3c21 [Example 61, 8-(5-Cyclopropylmethoxy-pyridin-3-yl)-1-(1,3-dimethyl-1H-pyrazol-4-yl)-3-methyl-1,3-dihydro-imidazo[4,5-c]quinolin-2-one]
0.382 | 133 (≈ 332 µM) | 0.324 | Cc1nn(C)c(C)c1-n1c(=O)n(C)c2cnc3ccc(-c4cnc(N)nc4)cc3c21 [Example 81.2, 8-(2-Amino-pyrimidin-5-yl)-3-methyl-1-(1,3,5-trimethyl-1H-pyrazol-4-yl)-1,3-dihydro-imidazo[4,5-c]quinolin-2-one]
0.204 | > 444 | 0.096 | COCCOc1cncc(-c2ccc3ncc4c(c3c2)n(-c2cn(C)nc2C)c(=O)n4C)c1 [Example 59.1, 1-(1,3-Dimethyl-1H-pyrazol-4-yl)-8-[5-(2-methoxy-ethoxy)-pyridin-3-yl]-3-methyl-1,3-dihydro-imidazo[4,5-c]quinolin-2-one]
< 0.005 | 433 (≈ 981 µM) | < 0.003 | CCNc1cc(-c2ccc3ncc4c(c3c2)n(-c2cn(C)nc2C)c(=O)n4C)cnc1CC [Example 161, 1-(1,3-Dimethyl-1H-pyrazol-4-yl)-8-(6-ethyl-5-ethylamino-pyridin-3-yl)-3-methyl-1,3-dihydro-imidazo[4,5-c]quinolin-2-one]
0.053 | 445 (≈ 944 µM) | 0.04 | CCNc1cc(-c2ccc3ncc4c(c3c2)n(-c2c(C)nn(CCO)c2C)c(=O)n4C)cnc1C [Example 210, 8-(5-Ethylamino-6-methyl-pyridin-3-yl)-1-[1-(2-hydroxy-ethyl)-3,5-dimethyl-1H-pyrazol-4-yl]-3-methyl-1,3-dihydro-imidazo[4,5-c]quinolin-2-one]
 | > 456 | 0.003 | CCc1ncc(-c2ccc3ncc4c(c3c2)n(-c2cn(C)nc2C)c(=O)n4C)cc1NC(C)C [Example 162, 1-(1,3-Dimethyl-1H-pyrazol-4-yl)-8-(6-ethyl-5-isopropylamino-pyridin-3-yl)-3-methyl-1,3-dihydro-imidazo[4,5-c]quinolin-2-one]
 | > 486 | 0.019 | Cc1nn(CCO)cc1-n1c(=O)n(C)c2cnc3ccc(-c4cncc(N5CCOCC5)c4)cc3c21 [Example 175.3, 1-[1-(2-Hydroxy-ethyl)-3-methyl-1H-pyrazol-4-yl]-3-methyl-8-(5-morpholin-4-yl-pyridin-3-yl)-1,3-dihydro-imidazo[4,5-c]quinolin-2-one]
